{"source": "patent US7537906B2", "about": "“Apoptosis inducer and method of screening for a substance inhibiting acylated homoserine lactone” (priority 2003, dated 2009)", "type_in_all_cases": "cell-based, human", "key": {"[1]": {"system": "PARP (poly-ADP ribose polymerase)", "test": "PARP activity by Western blot (cleaved PARP) in CaCo-2 cells", "procedure": "The activities of caspase (caspase-3 and caspase-9) and PARP (poly-ADP ribose polymerase) were measured in a manner similar to those in Examples 1 and 2 by Western blot analysis using each of anti-activated (cleaved) caspase antibodies, that is, an anti-cleaved caspase-3 antibody, an anti-cleaved caspase-9 antibody (D330) and an anti-cleaved PARP antibody (D214).\nN-(3-oxododecanoyl)-L-homoserine lactones with final concentrations of 30 μM and 100 μM were each added to cultured CaCo-2 cells. Caspase-3, caspase-9 and PARP activities were analyzed over time by Western blot at 0 hours, 1 hour, 2 hours, 4 hours, 6 hours, 8 hours and 10 hours after culture. […] Whereas at 30 μM, activated caspase-3 began to be detected 1 hour after stimulation and the activity lasted until 4 hours after stimulation, at 100 μM the activity peaked at 6 hours and lasted until 10 hours after stimulation. Cleaved caspase-9 and cleaved PARP were detected by reprobing each membrane.\nNext, 3 hours of reaction with N-(3-oxododecanoyl)-L-homoserine lactone was carried out at concentrations of 0, 1, 10, 30, and 100 μM, and then caspase and PARP activities were measured."}, "ERK": {"system": "ERK", "test": "MAP kinase activity by Western blot in CaCo-2 cells: phosphorylated ERK", "procedure": "A CaCo-2 carcinoma cell line of human colon cancer was purchased from American Type Culture Collection (ATCC), and cultured at 37° C. in the presence of 5% CO2 using a DMEM medium containing 10% FCS, 1% NEAA and 1% P/S (100 units/ml penicillin and 100 μg/ml streptomycin).\n6×10^5 CaCo-2 cells were inoculated per dish using 6 cm dishes (NUNC), washed twice with phosphate buffered saline (PBS) (-), and then cultured in a serum-free DMEM medium containing 1% NEAA for 24 hours. Subsequently, at a final concentration of 100 μM, homoserine lactone hydrochloride and N-(3-oxododecanoyl)-L-homoserine lactone were each added, and then each solution was allowed to react for 10 minutes. Furthermore, purified acylated homoserine lactone used herein had been dissolved in DMSO in a concentration 400 times higher than the target final concentration, and then subjected to filter sterilization (φ 0.22 μm). As a control, DMSO with a final concentration of 0.25% was used. In addition, α-tubulin was used as an internal standard.\nAfter reaction, the product was washed twice with cold PBS (-), and then frozen at −80° C. The cells were thawed on ice. 200 μl of a lysis buffer (50 mM HEPES, pH 7.5, 50 mM NaCl, 1 mM EDTA, 1.5 mM MgCl2, 1% Triton X-100, 10% glycerin, 10 mM sodium pyrophosphate, 1 mM Na3VO4, 100 mM NaF, 1 mM PMSF, 10 μg/ml aprotinin and 10 μg/ml leupeptin) was added to the cells, and then the cells were scraped off using a scraper. The cells were allowed to stand on ice for 20 minutes, and then centrifuged at 14000 rpm at 4° C. for 15 minutes, thereby collecting the supernatant. Concentration of the collected protein was measured, and then the protein equivalent to 50 μg was subjected to SDS-PAGE. After electrophoresis, the product was blotted on a PVDF membrane. When phosphorylated ERK, JNK, p38 and Akt were measured, blocking was carried out with 0.1% Tween 20 (TBS-T) containing 5% skim milk/Tris-buffered saline. As primary antibodies, an anti-phospho-p44/42 MAP kinase antibody, an anti-phospho-SAPK/JNK antibody, an anti-phospho-p38 MAP kinase antibody, and an anti-phospho-Akt ([…]) antibody were each used. As a secondary antibody, an HRP-labeled anti-rabbit IgG antibody was used. For the α-tubulin used as an internal standard, blocking was carried out with 5% bovine serum albumin (BSA)/TBS-T, and an anti-α-tubulin (Ab-1) antibody and an HRP-labeled anti-mouse IgG antibody were used as a primary antibody and a secondary antibody, respectively. For band detection, Renaissance™ Western Blot Chemiluminescence […] Reagent Plus (NEN) or Western Blotting Luminol Reagent (SANTA CRUZ BIOTECHNOLOGY) was used.\nAfter cell culture, MAP kinase activity and Akt activity were analyzed by Western blot in a manner similar to that used in (1), except that N-(3-oxododecanoyl)-L-homoserine lactones in final concentrations of 0 μM (0.25% DMSO), 1 μM, 10 μM, 30 μM and 100 μM were each added and each solution was allowed to react for 10 minutes (FIG. 8).\nAfter cell culture, N-(3-oxododecanoyl)-L-homoserine lactone with final concentrations of 30 μM and 100 μM were added. For each case, MAP kinase activity and Akt activity were measured by Western blot in a manner similar to that in (1), except for carrying out stimulation with acylated homoserine lactone in a short time course of 0, 5, 10, 30 and 60 minutes (FIG. 11), and in a long time course of 0, 10 minutes, 60 minutes, 2 hours, 4 hours, 6 hours, 8 hours and 10 hours (FIG. 12). In the case of stimulation at 30 μM, both ERK and p38 activities increased with a peak at 10 minutes. However, while ERK activity returned to the base level within 30 minutes, p38 activity lasted until 4 hours after stimulation. The inhibition of Akt activity in the case of stimulation at 30 μM peaked at 5 minutes and lasted until 60 minutes after stimulation, and returned to the base level within 2 hours. ERK activation took place with two steps in the case of stimulation at 100 μM. […]"}, "CaCo-2 cells": {"system": "CaCo-2 cells", "test": "Evaluation of viability by Trypan blue staining", "conditions": "12 hours of culture", "procedure": "2×10^5 CaCo-2 cells were inoculated in a 3.5 cm dish (NUNC), washed twice with PBS (-), and then cultured in a serum-free DMEM medium containing 1% NEAA for 24 hours. Various agents [N-(3-oxododecanoyl)-L-homoserine lactones with final concentrations between 1 and 100 μM] were added, followed by 12 hours of culture. 0.25% DMSO was used as a control. Subsequently, the supernatant and the cells removed from the dish using trypsin-EDTA (TE) were centrifuged at 800 rpm at room temperature for 5 minutes. The supernatant was removed, and then dilution was carried out with 200 μl of DMEM. 50 μl of the dilution was taken in an Eppen tube, an equivalent volume of Trypan blue stain was added, and then the cell count was measured using a hemacytometer. At this time, the sum of the dead cell count and the viable cell count to be measured was determined to be 200 cells or more."}}}
{"smiles": "CCCCCCCCCC(=O)CC(=O)N[C@H]1CCOC1=O", "note": "[N-(3-oxododecanoyl)-L-homoserine lactone]", "values": [{"measurement": "cleaved PARP over time", "setting": "[1]; 30 μM and 100 μM", "result": "behavior similar to that of cleaved caspase-9"}, {"measurement": "concentration at which cleaved PARP was detected", "setting": "[1]; 3 hours of reaction, 0, 1, 10, 30 and 100 μM", "result": "≥ 30", "unit": "µM"}, {"measurement": "ERK activity increase", "setting": "ERK; 10 μM, 10 minutes", "result": 1.5, "unit": "times"}, {"measurement": "ERK activity increase", "setting": "ERK; 30 μM, 10 minutes", "result": 7.7, "unit": "times"}, {"measurement": "ERK activity increase", "setting": "ERK; 100 μM, 10 minutes", "result": 9.8, "unit": "times"}, {"measurement": "activation of ERK", "setting": "ERK; 100 μM, 10 minutes", "result": "promoted"}, {"measurement": "concentration at which levels of phosphorylated ERK significantly increased", "setting": "ERK; 10 minutes", "result": "≥ 10", "unit": "µM"}, {"measurement": "time for ERK activity to return to the base level", "setting": "ERK; stimulation at 30 μM", "result": "≤ 30", "unit": "min"}, {"measurement": "time of peak ERK activity", "setting": "ERK; stimulation at 30 μM", "result": 10, "unit": "min"}, {"measurement": "time at which ERK activity began to increase, second step", "setting": "ERK; stimulation at 100 μM", "result": 4, "unit": "h"}, {"measurement": "time for ERK activity to return to the base level, first step", "setting": "ERK; stimulation at 100 μM", "result": "≤ 2", "unit": "h"}, {"measurement": "time for ERK activity to return to the base level, second step", "setting": "ERK; stimulation at 100 μM", "result": "≤ 10", "unit": "h"}, {"measurement": "time of peak ERK activity, first step", "setting": "ERK; stimulation at 100 μM", "result": 5, "unit": "min"}, {"measurement": "time of peak ERK activity, second step", "setting": "ERK; stimulation at 100 μM", "result": 8, "unit": "h"}, {"measurement": "viability", "setting": "CaCo-2 cells; 1 μM", "result": 94, "unit": "%"}, {"measurement": "viability", "setting": "CaCo-2 cells; 10 μM", "result": 90, "unit": "%"}, {"measurement": "viability", "setting": "CaCo-2 cells; 30 μM", "result": 55, "unit": "%"}, {"measurement": "viability", "setting": "CaCo-2 cells; 100 μM", "result": 51, "unit": "%"}, {"measurement": "concentration at which viability was significantly decreased", "setting": "CaCo-2 cells", "result": "≥ 30", "unit": "µM"}]}
